Experimental data published in ChEMBL document CHEMBL3734734, “Synthesis and antibacterial activity of trivalent ultrashort Arg-Trp-based antimicrobial peptides (AMPs)” (2015).
≈ marks a conversion by molar mass, not a printed value.

Tests used:
Assay type in all cases: functional
Staphylococcus aureus [1] = assay: Antibacterial activity against methicillin-resistant Staphylococcus aureus ATCC 43300 after 16 hrs by microdilution assay; conditions: ATCC 43300, 16 h
Escherichia coli = assay: Antibacterial activity against Escherichia coli DSM 30083 after 16 hrs by microdilution assay; conditions: DSM 30083 = JCM 1649 = ATCC 11775, 16 h
Staphylococcus aureus [2] = assay: Antibacterial activity against Staphylococcus aureus DSM 20231 after 16 hrs by microdilution assay; conditions: DSM 20231, 16 h
Bacillus subtilis = assay: Antibacterial activity against Bacillus subtilis 168 after 16 hrs by microdilution assay; conditions: subsp. subtilis str. 168, 16 h
Acinetobacter baumannii = assay: Antibacterial activity against Acinetobacter baumannii DSM 30007 after 16 hrs by microdilution assay; conditions: DSM 30007, 16 h

N=C(N)NCCC[C@H](NC(=O)[C@@H](Cc1c[nH]c2ccccc12)NCc1cn(Cc2cc(Cn3cc(CN[C@H](Cc4c[nH]c5ccccc45)C(=O)N[C@@H](CCCNC(=N)N)C(=O)N[C@H](Cc4c[nH]c5ccccc45)C(=O)O)nn3)cc(Cn3cc(CN[C@H](Cc4c[nH]c5ccccc45)C(=O)N[C@@H](CCCNC(=N)N)C(=O)N[C@H](Cc4c[nH]c5ccccc45)C(=O)O)nn3)c2)nn1)C(=O)N[C@H](Cc1c[nH]c2ccccc12)C(=O)O (stereo in doubt)
MIC (Staphylococcus aureus [1]): 12 µM (≈ 24 µg/mL) | MIC (Escherichia coli): 12 µM (≈ 24 µg/mL) | MIC (Staphylococcus aureus [2]): > 100 µM | MIC (Bacillus subtilis): 3 µM (≈ 5.99 µg/mL) | MIC (Acinetobacter baumannii): > 100 µM

CCc1c(Cn2cc(CN[C@H](Cc3c[nH]c4ccccc34)C(=O)N[C@@H](CCCNC(=N)N)C(=O)N[C@H](Cc3c[nH]c4ccccc34)C(=O)O)nn2)c(CC)c(Cn2cc(CN[C@H](Cc3c[nH]c4ccccc34)C(=O)N[C@@H](CCCNC(=N)N)C(=O)N[C@H](Cc3c[nH]c4ccccc34)C(=O)O)nn2)c(CC)c1Cn1cc(CN[C@H](Cc2c[nH]c3ccccc23)C(=O)N[C@@H](CCCNC(=N)N)C(=O)N[C@H](Cc2c[nH]c3ccccc23)C(=O)O)nn1 (stereo in doubt)
MIC (Staphylococcus aureus [1]): 2 µM (≈ 4.16 µg/mL) | MIC (Escherichia coli): 16 µM (≈ 33.3 µg/mL) | MIC (Staphylococcus aureus [2]): 4 µM (≈ 8.33 µg/mL) | MIC (Bacillus subtilis): 1 µM (≈ 2.08 µg/mL) | MIC (Acinetobacter baumannii): 32 µM (≈ 66.6 µg/mL)

CCc1c(Cn2cc(CN[C@@H](CCCNC(=N)N)C(=O)N[C@@H](Cc3c[nH]c4ccccc34)C(=O)O)nn2)c(CC)c(Cn2cc(CN[C@@H](CCCNC(=N)N)C(=O)N[C@@H](Cc3c[nH]c4ccccc34)C(=O)O)nn2)c(CC)c1Cn1cc(CN[C@@H](CCCNC(=N)N)C(=O)N[C@@H](Cc2c[nH]c3ccccc23)C(=O)O)nn1
MIC (Staphylococcus aureus [1]): 7.3 µM (≈ 11.1 µg/mL) | MIC (Escherichia coli): 60 µM (≈ 91.4 µg/mL) | MIC (Staphylococcus aureus [2]): 7.3 µM (≈ 11.1 µg/mL) | MIC (Bacillus subtilis): 1.8 µM (≈ 2.74 µg/mL) | MIC (Acinetobacter baumannii): 15 µM (≈ 22.8 µg/mL)

N=C(N)NCCC[C@H](NC(=O)[C@H](Cc1c[nH]c2ccccc12)NC(=O)[C@@H](N)CCCNC(=N)N)C(=O)NCc1cn(Cc2ccccc2)nn1
MIC (Staphylococcus aureus [1]): 70 µM (≈ 48.1 µg/mL) | MIC (Escherichia coli): > 100 µM | MIC (Staphylococcus aureus [2]): > 100 µM | MIC (Bacillus subtilis): 35 µM (≈ 24 µg/mL) | MIC (Acinetobacter baumannii): > 100 µM

O=C(O)c1cn(C2CC2)c2cc(N3CCNCC3)c(F)cc2c1=O [CIPROFLOXACIN]
MIC (Staphylococcus aureus [1]): 12 µM (≈ 3.98 µg/mL) | MIC (Escherichia coli): 1.5 µM (≈ 0.497 µg/mL) | MIC (Staphylococcus aureus [2]): 12 µM (≈ 3.98 µg/mL) | MIC (Bacillus subtilis): 24 µM (≈ 7.95 µg/mL) | MIC (Acinetobacter baumannii): 24 µM (≈ 7.95 µg/mL)

CCc1c(Cn2cc(CN[C@@H](Cc3c[nH]c4ccccc34)C(=O)N[C@@H](CCCNC(=N)N)C(=O)O)nn2)c(CC)c(Cn2cc(CN[C@@H](Cc3c[nH]c4ccccc34)C(=O)N[C@@H](CCCNC(=N)N)C(=O)O)nn2)c(CC)c1Cn1cc(CN[C@@H](Cc2c[nH]c3ccccc23)C(=O)N[C@@H](CCCNC(=N)N)C(=O)O)nn1
MIC (Staphylococcus aureus [1]): 7.3 µM (≈ 11.1 µg/mL) | MIC (Escherichia coli): 15 µM (≈ 22.8 µg/mL) | MIC (Staphylococcus aureus [2]): 15 µM (≈ 22.8 µg/mL) | MIC (Bacillus subtilis): 2.2 µM (≈ 3.35 µg/mL) | MIC (Acinetobacter baumannii): 15 µM (≈ 22.8 µg/mL)

H-RWRWRW-NH2
MIC (Staphylococcus aureus [1]): 5.3 µM | MIC (Escherichia coli): 21 µM | MIC (Staphylococcus aureus [2]): 11 µM | MIC (Bacillus subtilis): 1.3 µM | MIC (Acinetobacter baumannii): 21 µM

CCc1c(Cn2cc(CN[C@@H](CCCNC(=N)N)C(=O)N[C@@H](Cc3c[nH]c4ccccc34)C(=O)N[C@@H](CCCNC(=N)N)C(=O)O)nn2)c(CC)c(Cn2cc(CN[C@@H](CCCNC(=N)N)C(=O)N[C@@H](Cc3c[nH]c4ccccc34)C(=O)N[C@@H](CCCNC(=N)N)C(=O)O)nn2)c(CC)c1Cn1cc(CN[C@@H](CCCNC(=N)N)C(=O)N[C@@H](Cc2c[nH]c3ccccc23)C(=O)N[C@@H](CCCNC(=N)N)C(=O)O)nn1
MIC (Staphylococcus aureus [1]): 13 µM (≈ 25.9 µg/mL) | MIC (Escherichia coli): 13 µM (≈ 25.9 µg/mL) | MIC (Staphylococcus aureus [2]): 13 µM (≈ 25.9 µg/mL) | MIC (Bacillus subtilis): 3 µM (≈ 5.97 µg/mL) | MIC (Acinetobacter baumannii): 26 µM (≈ 51.8 µg/mL)

N=C(N)NCCC[C@H](NCc1cn(Cc2cc(Cn3cc(CN[C@@H](CCCNC(=N)N)C(=O)N[C@@H](Cc4c[nH]c5ccccc45)C(=O)O)nn3)cc(Cn3cc(CN[C@@H](CCCNC(=N)N)C(=O)N[C@@H](Cc4c[nH]c5ccccc45)C(=O)O)nn3)c2)nn1)C(=O)N[C@@H](Cc1c[nH]c2ccccc12)C(=O)O
MIC (Staphylococcus aureus [1]): 15 µM (≈ 21.6 µg/mL) | MIC (Escherichia coli): 60 µM (≈ 86.3 µg/mL) | MIC (Staphylococcus aureus [2]): 30 µM (≈ 43.2 µg/mL) | MIC (Bacillus subtilis): 3.8 µM (≈ 5.47 µg/mL) | MIC (Acinetobacter baumannii): 30 µM (≈ 43.2 µg/mL)

N=C(N)NCCC[C@H](NC(=O)[C@H](Cc1c[nH]c2ccccc12)NC(=O)[C@H](CCCNC(=N)N)NCc1cn(Cc2cc(Cn3cc(CN[C@@H](CCCNC(=N)N)C(=O)N[C@@H](Cc4c[nH]c5ccccc45)C(=O)N[C@@H](CCCNC(=N)N)C(=O)O)nn3)cc(Cn3cc(CN[C@@H](CCCNC(=N)N)C(=O)N[C@@H](Cc4c[nH]c5ccccc45)C(=O)N[C@@H](CCCNC(=N)N)C(=O)O)nn3)c2)nn1)C(=O)O
MIC (Staphylococcus aureus [1]): 13 µM (≈ 24.8 µg/mL) | MIC (Escherichia coli): 13 µM (≈ 24.8 µg/mL) | MIC (Staphylococcus aureus [2]): 27 µM (≈ 51.5 µg/mL) | MIC (Bacillus subtilis): 6 µM (≈ 11.4 µg/mL) | MIC (Acinetobacter baumannii): 54 µM (≈ 103 µg/mL)

N=C(N)NCCC[C@H](NC(=O)[C@H](Cc1c[nH]c2ccccc12)NCc1cn(Cc2cc(Cn3cc(CN[C@@H](Cc4c[nH]c5ccccc45)C(=O)N[C@@H](CCCNC(=N)N)C(=O)O)nn3)cc(Cn3cc(CN[C@@H](Cc4c[nH]c5ccccc45)C(=O)N[C@@H](CCCNC(=N)N)C(=O)O)nn3)c2)nn1)C(=O)O
MIC (Staphylococcus aureus [1]): 15 µM (≈ 21.6 µg/mL) | MIC (Escherichia coli): 60 µM (≈ 86.3 µg/mL) | MIC (Staphylococcus aureus [2]): 30 µM (≈ 43.2 µg/mL) | MIC (Bacillus subtilis): 7.6 µM (≈ 10.9 µg/mL) | MIC (Acinetobacter baumannii): 60 µM (≈ 86.3 µg/mL)
